Data: ChEMBL document CHEMBL5729088, “Thienodiazepine derivatives and application thereof” (2022)

How the values were obtained:
[1] = target: T1, Bromodomain-containing protein 4 (Homo sapiens, UniProt O60885); assay: (§1) BRD4 Biochemical Activity Test: The experiment plate was a plate that contained a gradient concentration of the compound and a corresponding DMSO solution and was prepared with ECHO before the experiment:a) The experiment plate was taken out, and 5 μL/well of “solution A” (protein solution) was added to columns 2-23 of the experiment plate, then 5 μL/well of 1× assay buffer was added to columns 1 and 24 of the experiment plate, and columns 1 and 24 were used as Min control in the experiment system;b) Centrifugation at 1000 rpm was carried out for 30 seconds;c) The plate was incubated at 23° C. for 20 minutes;d) After 20 minutes of incubation, 5 μL/well of “solution B” (polypeptide solution) was added to columns 1-24 of the experiment plate;e) Centrifugation at 1000 rpm was carried out for 30 seconds;f) The plate was incubated at 23° C. for 20 minutes;g) After 20 minutes of incubation, 5 μL/well of “solution C” (test reagent solution) was added to columns 1-24 of the experiment plate;h) Centrifugation at 1000 rpm was carried out for 30 seconds;i) The plate was incubated at 23° C. for 40 minutes;j) The experiment plate was placed on EnVision to read the plate.
[2] = target: T1, Bromodomain-containing protein 4; assay: as §1; remark: listed apart in the source

SMILES | IC50 [1] [nM] | IC50 [2] [nM]
Cc1sc2c(c1C)C(c1ccc(Cl)cc1)=N[C@@H](CC(=O)Nc1ccc(O)c3c1COC3)c1nnc(C)n1-2 | 21 | 100
Cc1sc2c(c1C)C(c1ccc(Cl)cc1)=N[C@@H](CC(=O)Nc1ccc3c(c1)CS(=O)(=O)C3)c1nnc(C)n1-2 | 14 | 49
